Experimental data taken from patent US20240307409A1, “ARGININE METHYLTRANSFERASE INHIBITOR AND USE THEREOF” (Cytosinlab Therapeutics Co., Ltd., priority 2021, published 2024).

Columns and labels:
[1] = target: PRMT1 (Homo sapiens, UniProt Q99873); assay: PRMT1 enzyme activity test; assay type: biochemical; conditions: 0.5 nM PRMT1, 3H-SAM, peptide
Description: PRMT1 enzyme activity test were performed in a buffer prepared on the same day 5 consisting of 10 mMTirs-HCl (pH=8.0), 0.01% Tween-20 and 1 mM DTT. The compounds were prepared to the highest inhibitor concentration ultimately required in the 100× reaction with 100% DMSO and then transferred to one well of a 384-well Echo plate (Echo-eligible 384-well polypropylene microplates 2.0, transparent, flat-bottomed) and sequentially diluted in the next well with a 3-fold dilution of 100% DMSO, and so on, with a total of 10 concentrations based on Precision. 100% DMSO was added to two empty wells to serve as control well without compound and control well without enzyme in the same 384-well Echo plate. 250 nL of compound was transferred from each well of the 384-well Echo plate to a 384-well assay plate (384-well polypropylene storage microplate) via the Echo 550 liquid processor. For wells with compounds and control well without compound, a mixture (15 uL) containing PRMT1 enzyme was added to the 384-well assay plate. For control wells without enzyme, the mixture containing the assay buffer (15 uL) was added instead. The compounds were allowed to incubate with PRMT1 for 15 minutes at room temperature, and then a mixture containing ^3H-SAM and peptide (10 uL) was added to start the reaction (final volume=25 uL). The final concentrations of the components were as follows: 0.5 nM for PRMT1, 0.25 uM for ^3H-SAM, 0.1 uM for the peptide, and 1% DMSO. After 120 min of incubation, the assay was terminated by the addition of non-radiolabeled SAM (5 uL) to a final concentration of 125 uM, which diluted 3H-SAM to a level at which its incorporation into the peptide substrate was no longer detected. 25 μL of the reaction solution from the 384-well assay plate was then transferred to a 384-well detection plate (Streptavidin FlashPlate HTS PLUS, high volume, 384 wells). The biotinylated peptide was allowed to bind to the surface of the antibiotic protein streptavidin for at least 60 minutes at room temperature. The Flashplate was then washed three times with 0.1% Tween-20 in a BioTek plate washer. Plates were read on a microplate counter (MicroBeta2) to measure the amount of ^3H-labeled peptide bound to the surface of the detection plate, measured in counts per minute (cpm).
The raw data were copied from the Reader and the inhibition values were calculated in Excel by Equation (1), Equation (1): Inh %=(CPMmax−CPMcmpd)/(CPMmax−CPMmin)*100, wherein the Max signal was obtained from the enzyme-substrate interaction and the Min signal was obtained from the substrate. IC50 values were obtained by fitting the data through equation (2) using XLFit add-in for Excel version […]. Equation (2): Y=Bottom+(Top-Bottom)/(1+((IC50/X)[…])), wherein, Y represents inhibition percentage and X represents compound concentration.

[2] = test system: Toledo cells; assay: Toledo cell proliferation inhibition assay; assay type: cell-based; conditions: Homo sapiens, Toledo, 144 h; six-day assay, CellTiter-Glo
Description: • A. Purpose: to determine the effects of compounds on Toledo cells through a six-day cell proliferation assay. • B. Reagents and materials: • 1. Cell culture medium: RPMI 1640+10% FBS • 2. 384-well cell culture plate (Corning, item #3764) • 3. 0.4% Taipan Blue Staining Solution (Thermo Fisher, item #T10282) • 4. cell counting plate (Thermo Fisher, item #C10228) • 5. 50 ml reagent reservoir (Corning, item #4870) • 6. 50 ml conical sterile polypropylene centrifuge tube (Thermo Fisher, item #339653) • 7. Automatic cell counter (Thermo Fisher, item #AMQAX1000) • 8. CellTiter-Glo Luminescent Cell Viability Detection Reagent (Promega, item #G7572) • 9. SpectraMax i3x Multi-Mode Enzyme Labeling Instrument (Megaman Molecular Instruments, item #5024062) • C. Experimental method • 1. Resuspending the cells with a pipette. • 2. 0.4% Taipan blue staining solution and Toledo cells were mixed in equal proportion, and the cells were counted using an automatic cell counter. • 3. Toledo cells were diluted to a final concentration of 2000 cells per well and transferred to a 50 ml reagent reservoir. • 4. Diluted Toledo cells were added to a 384-well cell culture plate, 40 ul per well. • 5. The cells were shortly centrifuged and settled. • 6. The cells were incubated in a 37° C., 5% CO2 cell culture incubator. • 7. The substrate in the CellTiter-Glo Luminescent Cell Viability Detection Reagent was mixed with the solution. • 8. After six days, the 384-well cell culture plate was taken from the incubator and 20 ul of configured CellTiter-Glo reagent was added to each well. • 9. 384-well cell culture platewasmixed in an orbital shaker for 30 minutes. • 10. Signal of luminescence was detected with a SpectraMax i3x multi-mode enzyme labeling instrument.

PRMT1, sequence (Q99873 whole entry): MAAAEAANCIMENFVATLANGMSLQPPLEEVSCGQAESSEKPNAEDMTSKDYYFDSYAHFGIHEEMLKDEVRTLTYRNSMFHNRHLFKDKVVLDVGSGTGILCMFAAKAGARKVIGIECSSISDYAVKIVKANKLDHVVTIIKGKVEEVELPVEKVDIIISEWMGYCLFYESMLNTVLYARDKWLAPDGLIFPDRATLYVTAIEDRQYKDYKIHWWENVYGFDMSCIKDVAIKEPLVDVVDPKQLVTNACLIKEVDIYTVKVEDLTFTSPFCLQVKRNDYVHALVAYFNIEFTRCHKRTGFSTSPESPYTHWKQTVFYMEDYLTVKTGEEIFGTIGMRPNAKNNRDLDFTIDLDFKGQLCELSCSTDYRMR

SMILES	IC50 [1] [nM]	IC50 [2] [nM]
CNCCN(C)Cc1ncccc1N1CCC(COc2cnc(C)nc2)CC1 [P305]	< 50	< 1000
CCOC(=O)C1(CC)CCN(c2cccnc2CN(C)CCNC)CC1 [P273]	< 50	1000 to 5000
CNCCN(C)Cc1ccc(C)nc1C1CCN(c2ccc(C#N)cc2)CC1 [P188]	< 50	1000 to 5000
CNCCN(C)Cc1ncccc1N1CCC(N2CCC(C(=O)NC)CC2)CC1 [P275]	≥ 500	≥ 5000
CNCCN(C)Cc1ccc(C)nc1N1CCc2ccccc2CC1 [P110, N1-((2-(4,5-dihydro-1H-benzo[d]azepin-3(2H)-yl)-6-methylpyridin-3-yl)methyl)-N1,N2-dimethylethane-1,2-diamine]	< 50	< 1000
CNCCN(C)Cc1ncccc1N1CCc2ccccc2C1 [P127]	< 50	1000 to 5000
CNCCN(C)Cc1ccccc1N1CCCCC1 [P033]	< 50	1000 to 5000
CNCCN(C)Cc1ccc2[nH]c(C)nc2c1C1CCN(c2cccc(C)c2)CC1 [P176]	< 50	< 1000
CNCCN(C)Cc1ncccc1N1CCC(Oc2ccc(F)cc2)CC1 [P178]	< 50	< 1000
CNCCN(C)Cc1ncccc1C1CCN(c2cccc(F)c2)CC1 [P102]	< 50	< 1000
CCc1cccc(N2CCC(c3cc(F)ccc3CN(C)CCNC)CC2)c1 [P013]	< 50	1000 to 5000
CNCCN(C)Cc1ccc(C)nc1C1CCN(c2cc(C)cc(C)c2)CC1 [P063]	< 50	< 1000
CNCCN(C)Cc1ncccc1C1CCN(c2ccc(C(=O)N(C)C)cc2)CC1 [P192]	< 50	≥ 5000
CNCCN(C)Cc1ncccc1C1COc2ccccc2OC1 [P271]	< 50	1000 to 5000
CNCCN(C)Cc1ccc(C(C)N)cc1C1CCc2cc(F)c(F)cc2CC1 (stereo not drawn) [P070]	< 50	< 1000
CNCCN(C)Cc1ncccc1C1CCN(c2ccnc(C)c2)CC1 [P193]	< 50	1000 to 5000
CCC1CC=C(c2ccccc2CN(C)CCNC)CC1 (stereo not drawn) [P016]	< 50	< 1000
CNCCN(C)Cc1ncccc1N1CCC(=CC(=O)OC)CC1 [P303]	< 50	1000 to 5000
CNCCN(C)Cc1ccc(C)nc1C1CCN(c2ccc(F)cc2)CC1 [P086]	< 50	1000 to 5000

SMILES	IC50 [1] [nM]	IC50 [2] [nM]
CNCCN(C)Cc1ccc2ncccc2c1C1=CCN(c2cccc(C)c2)CC1 [P047]	< 50	1000 to 5000
CNCCN(C)Cc1nc(C)ccc1C1CCN(CCc2ccc(C(F)(F)F)cc2)CC1 [P034]	< 50	< 1000
CCOCC1(COCC)CCC(c2ccncc2CN(C)CCNC)CC1 [P205]	50 to 500	1000 to 5000
CCOC[C@H]1CC[C@@H](c2cccnc2CN(C)CCNC)CC1 [P174]	< 50	1000 to 5000
CNCCN(C)Cc1ccc(F)cc1C1CCN(c2nccc(N3CCCC3)n2)CC1 [P172]	< 50	< 1000
CNCCN(C)Cc1ncccc1C1CCN(c2cc(C)nc(C)n2)CC1 [P262]	< 50	1000 to 5000
CNCCN(C)Cc1ncccc1C1CCN(CC(C)C)CC1 [P113]	< 50	< 1000
CNCCN(C)Cc1ncccc1C1CCN(c2cccc(CN(C)C)c2)CC1 [P092]	< 50	< 1000
CNCCN(C)Cc1ccccc1C1=CCC2(CC1)CC(C)(C)CO2 (stereo not drawn) [P042]	< 50	< 1000
CNCCN(C)Cc1ncccc1N1CCC(CC(=O)OC)CC1 [P302]	< 50	1000 to 5000
CNCCN(C)Cc1ncccc1C1CCN(c2cccc(C(F)(F)F)c2)CC1 [P068]	< 50	1000 to 5000
CNCCN(C)Cc1ncccc1N1CCC(OCc2ccccc2)CC1 [P166]	< 50	< 1000
CNCCN(C)Cc1ccc2c(c1C1CCN(c3cccc(C)c3)CC1)CCC(=O)N2 [P155]	< 50	< 1000
CNCCN(C)Cc1ccc(C(N)=O)cc1C1CCN(c2cccc(C)c2)CC1 [P221]	< 50	< 1000
CNCCN(C)Cc1ccc(C(=O)N(C)C)cc1C1CCN(c2cccc(C)c2)CC1 [P101]	50 to 500	1000 to 5000
CNCCN(C)Cc1ccc(F)cc1C1CCN(C(=O)Cc2ccccc2)CC1 [P087]	< 50	1000 to 5000
CNCCN(C)Cc1ncccc1N1CCCc2ccccc21 [P128]	≥ 500	≥ 5000
CCOC(=O)C1CCN(c2cccnc2CN(C)CCNC)CC1 [P301]	< 50	1000 to 5000
CNCCN(C)Cc1ncccc1N1CCC(Oc2ccccc2OC(F)(F)F)CC1 [P230]	< 50	< 1000

SMILES	IC50 [1] [nM]	IC50 [2] [nM]
CNCCN(C)Cc1ncccc1C1CCN(c2ccccn2)CC1 [P216]	< 50	1000 to 5000
CCC1(C(=O)NC)CCN(c2cccnc2CN(C)CCNC)CC1 [P300]	50 to 500	≥ 5000
CNCCN(C)Cc1nc(N)ccc1C1CCN(c2cccc(C)c2)CC1 [P227]	< 50	< 1000
CNCCN(C)Cc1ccc2[nH]ncc2c1N1CCc2ccccc2CC1 [P228]	< 50	< 1000
CCOCC1(COCC)CC=C(c2c(C)cccc2CN(C)CCNC)CC1 [P111]	< 50	< 1000
CNCCN(C)Cc1ncccc1N1CCC(N2CCN(C(C)C)CC2)CC1 [P124]	≥ 500	1000 to 5000
CCOCC1(COCC)CCC(c2cc(F)cnc2CN(C)CCNC)CC1 [P196]	< 50	< 1000
CNCCN(C)Cc1ccccc1N1CCC(N(C)C)CC1 [P035]	50 to 500	≥ 5000
CNCCN(C)Cc1ncccc1N1CC[C@H](OC)[C@H](OC)CC1 [P281]	50 to 500	≥ 5000
CNCCN(C)Cc1ncccc1N1CCC(Oc2cccc(OC)c2)CC1 [P238]	< 50	< 1000
CNCCN(C)Cc1ncccc1C1CCN(c2ccnc(N)n2)CC1 [P326]	< 50	1000 to 5000
CNCCN(C)Cc1ncccc1C1CCN(c2cc(C)cc(CN(C)C)c2)CC1 [P082]	< 50	1000 to 5000
CNCCN(C)Cc1ccc(C)nc1C1CCN(c2cc(C)ccc2F)CC1 [P067]	< 50	< 1000
CNCCN(C)Cc1ccc(F)cc1N1CCCN(c2ccccc2)CC1 [P030]	< 50	≥ 5000
CNCCN(C)Cc1ncccc1C1CCN(c2ccc(C)cc2)CC1 [P096]	< 50	1000 to 5000
CCOCC1CCCN(c2cccnc2CN(C)CCNC)C1 (stereo not drawn) [P217]	50 to 500	1000 to 5000
CNCCN(C)Cc1ncccc1C1CCN(Cc2ccccc2)CC1 [P090]	< 50	< 1000
CNCCN(C)Cc1ncccc1C1CCN(c2cc(C)ncn2)CC1 [P279]	< 50	1000 to 5000
CNCCN(C)Cc1ncccc1C1CCN(c2ccc3c(c2)CCO3)CC1 [P163]	< 50	< 1000
